pIC50: −log10 of the molar value. Starred links: 1 amine or outer side, 2 acyl side, 3 side chain; linkers in the order of their positions; H or OH if unused. Positions of bridges follow the written chain, without caps; N, C: chain ends. Non-standard residues stand in square brackets, D forms with d. Residues, ends and D or L forms follow the SMILES beside them. Phe(3-OCH2COOH) = N[C@@H](Cc1cccc(OCC(=O)O)c1)C(=O)O; Phe(4-COOH) = N[C@@H](Cc1ccc(C(=O)O)cc1)C(=O)O; Gly(N(CH2)3COOH) = O=C(O)CCCNCC(=O)O; X1 = CCCCCCC[C@H](N[*:1])C(=O)[*:2]; NMeF = CN[C@@H](Cc1ccccc1)C(=O)O; NMeA = CN[C@@H](C)C(=O)O
Molecular target: T1, activin A (Homo sapiens, UniProt P08476)
T1 construct: purchased R&D systems 338-AC-010/CF
T1 sequence (P08476 311-426): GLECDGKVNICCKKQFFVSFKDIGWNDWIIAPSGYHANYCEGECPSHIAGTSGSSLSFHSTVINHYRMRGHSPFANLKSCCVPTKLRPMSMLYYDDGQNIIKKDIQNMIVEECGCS
Assay: Reporter gene assay for myostatin signaling in HEK-Blue TGF-β Cells, activin A
Format: cell-based
Conditions: activin A 3 ng/mL
Description: In this Example, the in vitro activity of the peptide Myostatin_99_v145 (SEQ ID NO: 30) was evaluated using a reporter gene assay for myostatin signaling.
HEK-Blue (trademark) TGF-β Cells (hkb-tgfbv2, InvivoGen) were cultured in DMEM High glucose GlutaMAX (10569010, Thermo) containing 10% FBS (Heat-inactivated FBS QUALIFIED, 10270-106, Gibco), […] Normocin (ant-nr-05, InvivoGen), […] Zeocin (ant-zn-05, InvivoGen), and 50 µg/mL Gentamicin (11980-14, Nacalai Tesque). The cultured HEK-Blue (trademark) TGF-β Cells were suspended in an assay medium containing DMEM High glucose GlutaMAX, 50 µg/mL Gentamicin, and 1% bovine serum albumin (A7030, Sigma). The cells were seeded at 4 × 10^4 cells/well onto a 96-well plate (356461, Corning), namely BioCoat poly-D-lysine multi-well plate, and allowed to stand for 30 min. […]
To each well of a UV-Star µClear 96-well (655801, Greiner), 180 µL of Detection buffer (prepared by diluting, with 17.64 mL of distilled water, 180 µL of QUANTI-Blue buffer and 180 µL of QUANTI-Blue solution) was dispensed. […] The plate was covered and incubated in a CO2 incubator for 3 to 5 hours, and absorbance was measured (Envision 2104, PerkinElmer, 620 nm/bp 40 nm). Based on the absorbance, IC50 values of the peptide were calculated using software (Prism 9, GraphPad).

**Q.** How did the pIC50 (read-out: IC50 (nmol/L) Activin A) turn out when `CCCCCCC[C@@H]1NC(=O)[C@H](Cc2ccccc2)N(C)C(=O)[C@H](CCCNC(=N)N)NC(=O)[C@H](Cc2ccc(C(=O)O)cc2)NC(=O)[C@H](Cc2cccc(OCC(=O)O)c2)NC(=O)[C@H](C)N(C)C(=O)[C@H]([C@@H](C)CC)NC(=O)[C@H](Cc2ccccc2)N(C)C(=O)[C@H](Cc2ccc(O)cc2)NC(=O)[C@H](Cc2c[nH]c3ccccc23)NC(=O)[C@H](C)NC(=O)CN(CCCC(=O)O)C(=O)CSC[C@H](C(=O)O)NC(=O)[C@H](Cc2ccccc2)N(C)C(=O)[C@H](C)N(C)C1=O` [Myostatin_99_v145] ({CH2CO}-[Gly(N(CH2)3COOH)]AWY[NMeF]I[NMeA][Phe(3-OCH2COOH)][Phe(4-COOH)]R[NMeF][X1][NMeA][NMeF][dC]-OH; thioether N-15) was run?
**A.** Its pIC50 is less than 4.70.

**Q.** And the IC90 (read-out: IC90 (nmol/L) Activin A)?
**A.** Its IC90 is greater than 20000 nmol/L.
